The source of these data is paper PMC7115507 (European Journal of Medicinal Chemistry, 2019).

One data set addresses SAH hydrolase (Homo sapiens, UniProt P23526). The format is biochemical.
Data set [1] has as its system CHIKV. The format is cell-based, Chikungunya virus.
A further data set relates to Vero E6 cells. The experiment in a line: Cytotoxicity. The settings on record: highest dose tested.
In data set [2] the test system is MERS-CoV. The settings on record: cited from earlier work.
For data set [3], the system named is SARS-CoV. The settings on record: cited from earlier work.
The test system of data set [4] is ZIKV. The settings on record: cited from earlier work.
Data set [5] has as its system CHIKV. The settings on record: cited from earlier work.
The next data set has as its system HSV-1. The settings on record: cited from earlier work.
Another data set deals with HSV-2. The settings on record: cited from earlier work.
Data set [6] relates to MERS-CoV. The format is cell-based, Middle East respiratory syndrome coronavirus.
For data set [7], the system named is SARS-CoV. The format is cell-based, severe acute respiratory syndrome coronavirus.
Data set [8] relates to ZIKV. The format is cell-based, Zika virus.

Entries after “also recorded” stand apart in the source; their conditions may differ. Read-outs that look alike come from different tables or passages of the source.

Sequence of SAH hydrolase (P23526 whole entry): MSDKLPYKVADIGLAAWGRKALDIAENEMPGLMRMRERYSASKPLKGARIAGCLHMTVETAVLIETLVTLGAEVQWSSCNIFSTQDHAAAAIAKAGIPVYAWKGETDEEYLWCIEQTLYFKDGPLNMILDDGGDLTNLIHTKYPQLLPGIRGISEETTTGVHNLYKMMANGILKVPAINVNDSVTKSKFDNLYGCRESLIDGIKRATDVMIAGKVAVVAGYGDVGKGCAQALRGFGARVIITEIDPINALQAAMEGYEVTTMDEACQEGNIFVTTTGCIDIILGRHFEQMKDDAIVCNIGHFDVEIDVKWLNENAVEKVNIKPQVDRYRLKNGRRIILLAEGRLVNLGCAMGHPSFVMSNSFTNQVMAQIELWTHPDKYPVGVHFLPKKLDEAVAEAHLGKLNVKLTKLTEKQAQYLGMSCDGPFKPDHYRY

On to `Nc1ncnc2c1ncn2[C@H]1[C@H](O)[C@H](O)[C@@H](CCO)[C@H]1F` [Compound 3a, (1R,2S,3S,4R,5R)-3-(6-Amino-9H-purin-9-yl)-4-fluoro-5-(2-hydroxyethyl)cyclopentane-1,2-diol], for which, on SAH hydrolase, the “potency towards SAH hydrolase relative to 3d” value was found to be 5.6 times. The “selectivity index (SI)” value in the data set on CHIKV [1] is “more than 2083”. For the same molecule, in the data set with Vero E6 cells, the “concentration up to which no noticeable cytotoxicity was seen” value is greater than 250 µM.

Turning to `Nc1ncnc2c1ncn2[C@H]1[C@H](O)[C@H](O)[C@@H](CO)C1(F)F` [Compound 2b, 6,6′-difluoro-aristeromycin], the “antiviral activity against MERS-CoV (in words)” value in the data set on MERS-CoV [2] is given as “broad-spectrum antiviral activity; also recorded: potent antiviral activities”. The “antiviral activity against SARS-CoV (in words)” value in the data set on SARS-CoV [3] is “broad-spectrum antiviral activity; also recorded: potent antiviral activities”. The “antiviral activity against ZIKV (in words)” value in the data set with ZIKV [4] is on record as “broad-spectrum antiviral activity”; with ZIKV [4] (listed as 2), “potent antiviral activities”. Also, the “antiviral activity against CHIKV (in words)” value with CHIKV [5] is “broad-spectrum antiviral activity”; in the data set with CHIKV [5] (listed as 2) it was “potent antiviral activities”.

`OCC[C@@H]1[C@@H](O)[C@@H](O)[C@H](n2cnc3c(O)ncnc32)[C@@H]1F` [Compound 3c, 9-((1S,2R,3R,4R,5S)-2-fluoro-4,5-dihydroxy-3-(2-hydroxyethyl)cyclopentyl)-1,9-dihydro-6H-purin-6-one]: on SAH hydrolase, the “inhibition of SAH hydrolase at the highest dose tested (in words)” value is listed as “no inhibitory activity was observed”.

In the case of `Nc1ncnc2c1ncn2[C@H]1[C@H](O)[C@H](O)[C@@H](CO)[C@H]1F` [Compound 2a, 6′-β-fluoro-aristeromycin], the “antiviral activity against CHIKV (in words)” value in the data set with CHIKV [1] is “inactive”.

As to `Nc1ncnc2c1ncn2C1CC(CCO)C(O)C1O` (single isomer, unassigned; (-)) [(−)-homoaristeromycin], the “activity against HSV-1 (in words)” value with HSV-1 is “inactive”. For the same molecule, the “activity against HSV-2 (in words)” value in the data set on HSV-2 was “inactive”.

Regarding `Nc1ncnc2c1ncn2[C@H]1[C@H](O)[C@H](O)[C@@H](CCO)C1(F)F` [Compound 3d], the “antiviral activity against MERS-CoV (in words)” value with MERS-CoV [6] is on record as “did not exhibit antiviral activity”. Besides, the “antiviral activity against SARS-CoV (in words)” value in the data set with SARS-CoV [7] is on record as “did not exhibit antiviral activity”. Besides, the “antiviral activity against ZIKV (in words)” value with ZIKV [8] was “did not exhibit antiviral activity”. The “antiviral activity against CHIKV (in words)” value in the data set with CHIKV [1] is on record as “did not exhibit antiviral activity”.
